Data reported in PubChem BioAssay (NCI).
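96-well plates; 48 h exposure; 5 concentrations. Endpoints by linear interpolation between flanking doses. Not reached: highest tested concentration assigned. GI50 is the concentration that inhibits growth by half. TGI marks complete inhibition of growth.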

Experiments:
Experiment in all cases: growth of human tumour cells (NCI), 48 h
[1] = system: NCI/ADR-RES ovarian
[2] = system: OVCAR-4 ovarian
[3] = system: MALME-3M melanoma
[4] = system: SW-620 colon
[5] = system: NCI-H460 lung
[6] = system: SN12C renal
[7] = system: CAKI-1 renal
[8] = system: MDA-MB-435
[9] = system: RXF 393 renal
[10] = system: SNB-75 CNS
[11] = system: OVCAR-8 ovarian
[12] = system: NCI-H226 lung
[13] = system: 786-0 renal
[14] = system: LOX IMVI melanoma
[15] = system: RPMI-8226 leukemia
[16] = system: UO-31 renal
[17] = system: CCRF-CEM leukemia
[18] = system: SK-MEL-2 melanoma
[19] = system: SK-OV-3 ovarian
[20] = system: SF-295 CNS
[21] = system: KM12 colon
[22] = system: EKVX NSCLC
[23] = system: TK-10 renal
[24] = system: UACC-257 melanoma
[25] = system: A498 renal
[26] = system: T-47D breast
[27] = system: NCI-H522 lung
[28] = system: BT-549 breast
[29] = system: U251 CNS
[30] = system: HT29 colon
[31] = system: SF-539 CNS
[32] = system: SR leukemia
[33] = system: HCC-2998 colon
[34] = system: K-562 leukemia
[35] = system: A549 NSCLC
[36] = system: SK-MEL-28 melanoma
[37] = system: MDA-MB-231 breast
[38] = system: HOP-92 NSCLC
[39] = system: OVCAR-5 ovarian
[40] = system: UACC-62 melanoma
[41] = system: SF-268 CNS
[42] = system: HOP-62 NSCLC
[43] = system: IGROV1 ovarian
[44] = system: PC-3 prostate
[45] = system: SNB-19 CNS
[46] = system: HS 578T breast
[47] = system: COLO 205 colon
[48] = system: MCF7 breast
[49] = system: DU-145 prostate
[50] = system: SK-MEL-5 melanoma
[51] = system: OVCAR-3 ovarian
[52] = system: HCT-15 colon
[53] = system: ACHN renal
[54] = system: M14 melanoma
[55] = system: HL-60(TB) leukemia
[56] = system: HCT-116 colon
[57] = system: MOLT-4 leukemia
[58] = system: NCI-H23 lung

## C=C(C)C(=O)O[C@H]1CC2(CO)O[C@@H]2CC/C(COC(C)=O)=C/C2OC(=O)C(=C)[C@@H]21 (some centres undefined)
[1]
  TGI: > 100 µM
[2]
  TGI: > 100 µM
[3]
  TGI: 62.2 µM
[4]
  TGI: 54.7 µM
[5]
  TGI: > 100 µM
[6]
  TGI: > 100 µM
[7]
  TGI: > 58.8 µM
[8]
  TGI: > 61.3 µM
[9]
  TGI: 26.4 µM
[10]
  TGI: > 100 µM
[11]
  TGI: 49.8 µM
[12]
  TGI: > 100 µM
[13]
  TGI: > 31.6 µM
[14]
  TGI: > 60 µM
[15]
  TGI: 31.3 µM
[16]
  TGI: 59.4 µM
[17]
  TGI: 39.3 µM
[18]
  TGI: > 100 µM
[19]
  TGI: > 100 µM
[20]
  TGI: > 100 µM
[21]
  TGI: > 100 µM
[22]
  TGI: > 100 µM
[23]
  TGI: > 56.6 µM
[24]
  TGI: 43.1 µM
[25]
  TGI: > 100 µM
[26]
  TGI: > 79.2 µM
[27]
  TGI: 31.6 µM
[28]
  TGI: 52.1 µM
[29]
  TGI: > 100 µM
[30]
  TGI: > 100 µM
[31]
  TGI: > 100 µM
[32]
  TGI: 43.3 µM
[33]
  TGI: > 91.6 µM
[34]
  TGI: 74 µM
[35]
  TGI: > 100 µM
[36]
  TGI: > 64.6 µM
[37]
  TGI: > 100 µM
[38]
  TGI: 51.9 µM
[39]
  TGI: > 100 µM
[40]
  TGI: > 100 µM
[41]
  TGI: > 100 µM
[42]
  TGI: > 100 µM
[43]
  TGI: > 100 µM
[44]
  TGI: > 100 µM
[45]
  TGI: > 100 µM
[46]
  TGI: > 100 µM
[47]
  TGI: 48.4 µM
[48]
  TGI: 57.7 µM
[49]
  TGI: > 100 µM
[50]
  TGI: > 100 µM
[51]
  TGI: 79.6 µM
[52]
  TGI: > 96.7 µM
[53]
  TGI: > 63.6 µM
[54]
  TGI: 49.1 µM
[55]
  TGI: 29.6 µM
[56]
  TGI: 39.4 µM
[57]
  TGI: 29.8 µM
[58]
  TGI: > 100 µM

## COP(=O)(OC)C(NC(c1ccccc1)c1ccccc1)c1ccc2c(c1)OCO2 (centres undefined)
[1]
  GI50: 30.3 µM
  TGI: > 100 µM
[2]
  GI50: 30.5 µM
  TGI: 89.9 µM
[3]
  GI50: 27.4 µM
  TGI: 58.9 µM
[4]
  GI50: 31.7 µM
  TGI: > 100 µM
[5]
  GI50: 20.1 µM
  TGI: 42 µM
[6]
  GI50: 24 µM
  TGI: 53.8 µM
[7]
  GI50: 33.2 µM
  TGI: 89 µM
[8]
  GI50: 33.3 µM
  TGI: 94.8 µM
[9]
  GI50: 23 µM
  TGI: 50.1 µM
[10]
  GI50: 30.5 µM
  TGI: 67.2 µM
[11]
  GI50: 35.2 µM
  TGI: > 100 µM
[12]
  GI50: 30.7 µM
  TGI: 66.6 µM
[13]
  GI50: 29.5 µM
  TGI: 74.9 µM
[14]
  GI50: 16.4 µM
  TGI: 31.4 µM
[15]
  GI50: 14.1 µM
  TGI: 32.3 µM
[16]
  GI50: 21.8 µM
  TGI: 53.9 µM
[17]
  GI50: 2260 nM
  TGI: 29.7 µM
[18]
  GI50: 23.8 µM
  TGI: 50.2 µM
[19]
  GI50: 40.7 µM
  TGI: > 100 µM
[20]
  GI50: 29.5 µM
  TGI: > 100 µM
[21]
  GI50: 30 µM
  TGI: 81.3 µM
[22]
  GI50: 31.4 µM
  TGI: 92.6 µM
[23]
  GI50: 44.5 µM
  TGI: > 100 µM
[24]
  GI50: 31.4 µM
  TGI: 89.7 µM
[25]
  GI50: 22.8 µM
  TGI: 44.2 µM
[26]
  GI50: 27 µM
  TGI: 84.7 µM
[27]
  GI50: 24.5 µM
  TGI: 70 µM
[28]
  GI50: 20.6 µM
  TGI: 38.8 µM
[29]
  GI50: 30.8 µM
  TGI: > 100 µM
[30]
  GI50: 19.9 µM
  TGI: 51.5 µM
[31]
  GI50: 20.2 µM
  TGI: 36 µM
[32]
  GI50: 24.4 µM
  TGI: 48.9 µM
[33]
  GI50: 33.5 µM
  TGI: > 100 µM
[34]
  GI50: 20.7 µM
  TGI: 65 µM
[35]
  GI50: 27.3 µM
  TGI: > 100 µM
[36]
  GI50: 21.5 µM
  TGI: 44.8 µM
[37]
  GI50: 14 µM
  TGI: 37.9 µM
[38]
  GI50: 12 µM
  TGI: 26.3 µM
[39]
  GI50: 54.6 µM
  TGI: > 100 µM
[40]
  GI50: 16 µM
  TGI: 32.2 µM
[41]
  GI50: 29.2 µM
  TGI: 91.8 µM
[42]
  GI50: 21.5 µM
  TGI: 52.2 µM
[43]
  GI50: 22 µM
  TGI: 73.6 µM
[44]
  GI50: 16.4 µM
  TGI: 66.3 µM
[45]
  GI50: 23.4 µM
  TGI: 47.4 µM
[46]
  GI50: 27.4 µM
  TGI: 59.9 µM
[47]
  GI50: 52.2 µM
  TGI: > 100 µM
[48]
  GI50: 26 µM
  TGI: 79 µM
[49]
  GI50: 26.6 µM
  TGI: 60.5 µM
[50]
  GI50: 16.9 µM
  TGI: 30.5 µM
[51]
  GI50: 22.1 µM
  TGI: 50.2 µM
[52]
  GI50: 30.1 µM
  TGI: 95.1 µM
[53]
  GI50: 29.1 µM
  TGI: > 100 µM
[54]
  GI50: 23.1 µM
  TGI: 61.3 µM
[55]
  GI50: 22.8 µM
  TGI: 56.5 µM
[56]
  GI50: 16.3 µM
  TGI: 35.3 µM
[57]
  GI50: 7.85 µM
  TGI: 29.4 µM
[58]
  GI50: 31.5 µM
  TGI: 88.3 µM
